# Tested on: wild type B. pumilus
# Assay: Activity of resting cell in aqueous organic two-phase system (biotransformation of FA to VG)
# Conditions: two-phase bioconversion, B. pumilus whole cells
# Method: The cells were resuspended in 1 ml of 0.1 M phosphate buffer to a concentration (OD600=5) and mixed with an equal volume of organic solvent in flasks. Biotransformation was started at an initial FA concentration of 36 mM. The experiments were performed under the same conditions as in the mono-phase biotransformation process (Example 1).
row,SMILES,Toxicity of solvent to the cells
1,CCO [Ethanol],toxic to the cells
2,CCOC(C)=O [Ethyl acetate],toxic to the cells
